How the values were obtained:
[1] = DRUGMATRIX: Calcium Channel Type L, Dihydropyridine radioligand binding (ligand: [3H] Nitrendipine); type: cell membranes, Rattus norvegicus, Wistar, Cerebral cortex, Membrane; details: Not Active = under 50% inhibition at 10 µM
Cannabinoid receptor 1 = Cannabinoid receptor 1 (Homo sapiens, UniProt P21554); type: cell membranes, Chem-1, Membrane; details: chem-1; further: in other assays of this panel Not Active means under 50% inhibition at 10 µM
Carbonic anhydrase 2 = Carbonic anhydrase 2 (Homo sapiens, UniProt P00918); test: DRUGMATRIX: Carbonic Anhydrase II enzyme inhibition (substrate: 4-Nitrophenyl acetate (4-NPA)); type: tissue-based, Erythrocyte; details: erythrocyte; Not Active = under 50% inhibition at 10 µM
[2] = DRUGMATRIX: Glutamate, Kainate radioligand binding (ligand: [3H] Kainic acid); type: cell membranes, Rattus norvegicus, Wistar, Brain, Membrane; details: Not Active = under 50% inhibition at 10 µM
[3] = molecular target: T1, 3-hydroxy-3-methylglutaryl-coenzyme A reductase (Homo sapiens, UniProt P04035); set-up: species or system Escherichia coli;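 further: enzyme inhibition assay of HMG-CoA reductase using radiolabeled [14C]HMG-CoA as substrate; in other assays of this panel Not Active means under 50% inhibition at 10 µM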
T1 sequence (P04035 whole entry): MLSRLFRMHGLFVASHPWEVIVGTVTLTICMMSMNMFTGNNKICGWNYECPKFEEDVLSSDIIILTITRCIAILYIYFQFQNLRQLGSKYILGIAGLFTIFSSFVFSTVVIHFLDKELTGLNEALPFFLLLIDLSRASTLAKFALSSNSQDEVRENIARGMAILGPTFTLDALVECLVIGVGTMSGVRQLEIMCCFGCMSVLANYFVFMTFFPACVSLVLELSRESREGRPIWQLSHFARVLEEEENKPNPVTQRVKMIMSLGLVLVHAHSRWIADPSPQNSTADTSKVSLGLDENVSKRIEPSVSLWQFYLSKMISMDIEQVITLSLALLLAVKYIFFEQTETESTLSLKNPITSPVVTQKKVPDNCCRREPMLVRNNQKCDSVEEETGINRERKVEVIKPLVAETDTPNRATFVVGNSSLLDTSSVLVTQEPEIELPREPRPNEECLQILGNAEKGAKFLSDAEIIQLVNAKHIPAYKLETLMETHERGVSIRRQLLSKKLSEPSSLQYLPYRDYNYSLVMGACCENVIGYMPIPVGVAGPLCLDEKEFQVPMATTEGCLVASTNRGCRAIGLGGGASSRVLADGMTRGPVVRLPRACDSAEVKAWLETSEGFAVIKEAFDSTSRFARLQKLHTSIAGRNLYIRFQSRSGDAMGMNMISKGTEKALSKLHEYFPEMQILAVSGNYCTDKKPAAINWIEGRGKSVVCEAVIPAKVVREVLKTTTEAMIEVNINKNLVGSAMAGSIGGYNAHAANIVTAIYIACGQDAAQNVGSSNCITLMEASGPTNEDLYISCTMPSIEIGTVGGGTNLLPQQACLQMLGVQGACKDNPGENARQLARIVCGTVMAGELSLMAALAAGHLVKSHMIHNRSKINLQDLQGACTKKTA

Cathepsin G = molecular target: T2, Cathepsin G (Homo sapiens, UniProt P08311); test: biochemical; type: tissue-based, Neutrophil; details: neutrophil;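 further: inhibition of Cathepsin G enzyme activity, tested on an AMC-conjugated peptide substrate; in other assays of this panel Not Active means under 50% inhibition at 10 µM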
T2 sequence (P08311 whole entry): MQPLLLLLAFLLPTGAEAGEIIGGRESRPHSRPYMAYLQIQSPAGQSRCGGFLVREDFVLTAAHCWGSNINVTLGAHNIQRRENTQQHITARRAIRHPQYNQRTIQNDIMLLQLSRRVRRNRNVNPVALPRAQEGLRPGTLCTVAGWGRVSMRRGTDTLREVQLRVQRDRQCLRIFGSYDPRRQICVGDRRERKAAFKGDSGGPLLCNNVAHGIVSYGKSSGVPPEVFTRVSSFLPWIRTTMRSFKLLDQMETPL

Cytochrome P450 1A2 = molecular target: T3, Cytochrome P450 1A2 (Homo sapiens, UniProt P05177); details: bti-tn-5b1-4; further: in other assays of this panel Not Active means under 50% inhibition at 10 µM
T3 sequence (P05177 whole entry): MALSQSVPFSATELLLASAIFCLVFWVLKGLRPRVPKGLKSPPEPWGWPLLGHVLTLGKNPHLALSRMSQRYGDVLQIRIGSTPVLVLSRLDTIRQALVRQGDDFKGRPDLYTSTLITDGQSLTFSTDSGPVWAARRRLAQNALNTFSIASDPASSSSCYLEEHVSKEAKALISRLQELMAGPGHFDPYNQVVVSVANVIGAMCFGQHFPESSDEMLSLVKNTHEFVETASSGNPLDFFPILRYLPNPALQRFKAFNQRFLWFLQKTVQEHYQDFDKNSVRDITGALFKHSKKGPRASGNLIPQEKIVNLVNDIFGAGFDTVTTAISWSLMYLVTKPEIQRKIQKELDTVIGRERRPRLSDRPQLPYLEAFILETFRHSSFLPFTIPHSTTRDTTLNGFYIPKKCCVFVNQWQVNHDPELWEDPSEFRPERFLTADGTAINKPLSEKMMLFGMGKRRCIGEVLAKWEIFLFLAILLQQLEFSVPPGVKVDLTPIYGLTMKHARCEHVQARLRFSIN

Cytochrome P450 2C9 = Cytochrome P450 2C9 (Homo sapiens, UniProt P11712); details: bti-tn-5b1-4; further: in other assays of this panel Not Active means under 50% inhibition at 10 µM
Cytochrome P450 2C9, sequence (P11712 whole entry): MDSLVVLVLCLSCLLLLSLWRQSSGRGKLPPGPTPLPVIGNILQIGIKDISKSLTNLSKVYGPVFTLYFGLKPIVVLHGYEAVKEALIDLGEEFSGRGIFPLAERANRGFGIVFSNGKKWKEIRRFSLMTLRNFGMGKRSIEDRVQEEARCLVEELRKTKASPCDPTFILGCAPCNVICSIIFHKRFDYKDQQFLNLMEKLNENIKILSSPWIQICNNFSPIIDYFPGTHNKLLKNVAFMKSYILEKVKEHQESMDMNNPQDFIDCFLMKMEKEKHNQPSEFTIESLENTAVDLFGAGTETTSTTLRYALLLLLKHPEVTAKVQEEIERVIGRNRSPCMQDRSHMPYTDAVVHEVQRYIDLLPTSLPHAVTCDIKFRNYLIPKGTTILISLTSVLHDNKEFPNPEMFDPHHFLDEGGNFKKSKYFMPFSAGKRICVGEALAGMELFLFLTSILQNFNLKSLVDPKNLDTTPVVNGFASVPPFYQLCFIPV

Cannabinoid receptor 1, sequence (P21554 whole entry): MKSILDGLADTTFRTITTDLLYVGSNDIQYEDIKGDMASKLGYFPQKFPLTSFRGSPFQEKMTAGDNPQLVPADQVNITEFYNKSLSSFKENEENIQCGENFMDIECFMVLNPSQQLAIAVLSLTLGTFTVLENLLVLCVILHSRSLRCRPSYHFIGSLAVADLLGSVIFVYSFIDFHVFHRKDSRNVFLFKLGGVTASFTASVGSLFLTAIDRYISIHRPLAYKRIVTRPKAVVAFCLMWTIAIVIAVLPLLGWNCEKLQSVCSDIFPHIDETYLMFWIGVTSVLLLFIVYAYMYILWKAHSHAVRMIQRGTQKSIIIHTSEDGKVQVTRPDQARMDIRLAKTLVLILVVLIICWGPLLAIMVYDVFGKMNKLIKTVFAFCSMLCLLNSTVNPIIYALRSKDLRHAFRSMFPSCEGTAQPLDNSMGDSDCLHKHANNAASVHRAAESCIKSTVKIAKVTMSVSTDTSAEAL

CN(Cc1cc(Br)cc(Br)c1N)C1CCCCC1 [BROMHEXINE]
Not Active: IC50 [1] | Ki [1] | IC50 (Cannabinoid receptor 1) | IC50 (Carbonic anhydrase 2) | IC50 [2] | Ki [2] | IC50 [3] | IC50 (Cathepsin G) | IC50 (Cytochrome P450 1A2) | Ki (Cytochrome P450 1A2) | IC50 (Cytochrome P450 2C9) | Ki (Cytochrome P450 2C9)

CCO [ALCOHOL]
Not Active: IC50 [1] | Ki [1] | IC50 (Cannabinoid receptor 1) | IC50 (Carbonic anhydrase 2) | IC50 [2] | Ki [2] | IC50 [3] | IC50 (Cathepsin G) | IC50 (Cytochrome P450 1A2) | Ki (Cytochrome P450 1A2) | IC50 (Cytochrome P450 2C9) | Ki (Cytochrome P450 2C9)

CCN1CCN(C(=O)N[C@@H](C(=O)N[C@@H]2C(=O)N3[C@@H]2SC(C)(C)[C@@H]3C(=O)O)c2ccccc2)C(=O)C1=O [PIPERACILLIN]
Not Active: IC50 [1] | Ki [1] | IC50 (Cannabinoid receptor 1) | IC50 (Carbonic anhydrase 2) | IC50 [2] | Ki [2] | IC50 [3] | IC50 (Cathepsin G) | IC50 (Cytochrome P450 1A2) | Ki (Cytochrome P450 1A2) | IC50 (Cytochrome P450 2C9) | Ki (Cytochrome P450 2C9)

NC(=O)NC(=O)Cc1ccccc1 [PHENACEMIDE]
Not Active: IC50 [1] | Ki [1] | IC50 (Cannabinoid receptor 1) | IC50 (Carbonic anhydrase 2) | IC50 [2] | Ki [2] | IC50 [3] | IC50 (Cathepsin G) | IC50 (Cytochrome P450 1A2) | Ki (Cytochrome P450 1A2) | IC50 (Cytochrome P450 2C9) | Ki (Cytochrome P450 2C9)

CC(CN1c2ccccc2Sc2ccccc21)N(C)C (stereo unspecified) [PROMETHAZINE]
Not Active: IC50 [1] | Ki [1] | IC50 (Cannabinoid receptor 1) | IC50 (Carbonic anhydrase 2) | IC50 [2] | Ki [2] | IC50 [3] | IC50 (Cathepsin G) | IC50 (Cytochrome P450 1A2) | Ki (Cytochrome P450 1A2) | IC50 (Cytochrome P450 2C9) | Ki (Cytochrome P450 2C9)

Nc1ccc(Cc2ccc(N)cc2)cc1
Not Active: IC50 [1] | Ki [1] | IC50 (Cannabinoid receptor 1) | IC50 (Carbonic anhydrase 2) | IC50 [2] | Ki [2] | IC50 [3] | IC50 (Cathepsin G) | IC50 (Cytochrome P450 1A2) | Ki (Cytochrome P450 1A2) | IC50 (Cytochrome P450 2C9) | Ki (Cytochrome P450 2C9)

C[N+](C)(C)CCOP(=O)([O-])OC[C@H](O)CO
Not Active: IC50 [1] | Ki [1] | IC50 (Cannabinoid receptor 1) | IC50 (Carbonic anhydrase 2) | IC50 [2] | Ki [2] | IC50 [3] | IC50 (Cathepsin G) | IC50 (Cytochrome P450 1A2) | Ki (Cytochrome P450 1A2) | IC50 (Cytochrome P450 2C9) | Ki (Cytochrome P450 2C9)

Clc1cc(Cl)c(OCC#CI)cc1Cl [HALOPROGIN]
Not Active: IC50 [1] | Ki [1] | IC50 (Cannabinoid receptor 1) | IC50 (Carbonic anhydrase 2) | IC50 [2] | Ki [2] | IC50 [3] | IC50 (Cathepsin G) | IC50 (Cytochrome P450 1A2) | Ki (Cytochrome P450 1A2) | IC50 (Cytochrome P450 2C9) | Ki (Cytochrome P450 2C9)

Cc1cc(C(C)(C)C)c(O)c(C)c1CC1=NCCN1 [OXYMETAZOLINE]
Not Active: IC50 [1] | Ki [1] | IC50 (Cannabinoid receptor 1) | IC50 (Carbonic anhydrase 2) | IC50 [2] | Ki [2] | IC50 [3] | IC50 (Cathepsin G) | IC50 (Cytochrome P450 1A2) | Ki (Cytochrome P450 1A2) | IC50 (Cytochrome P450 2C9) | Ki (Cytochrome P450 2C9)

C[N+](C)(C)CCOC(N)=O.[Cl-] [CARBACHOL]
Not Active: IC50 [1] | Ki [1] | IC50 (Cannabinoid receptor 1) | IC50 (Carbonic anhydrase 2) | IC50 [2] | Ki [2] | IC50 [3] | IC50 (Cathepsin G) | IC50 (Cytochrome P450 1A2) | Ki (Cytochrome P450 1A2) | IC50 (Cytochrome P450 2C9) | Ki (Cytochrome P450 2C9)

O=C1c2ccccc2C(=O)C1c1ccccc1 [PHENINDIONE]
Not Active: IC50 [1] | Ki [1] | IC50 (Cannabinoid receptor 1) | IC50 (Carbonic anhydrase 2) | IC50 [2] | Ki [2] | IC50 [3] | IC50 (Cathepsin G) | IC50 (Cytochrome P450 1A2) | Ki (Cytochrome P450 1A2) | IC50 (Cytochrome P450 2C9) | Ki (Cytochrome P450 2C9)

NC(N)=Nc1nc(CSCCC(N)=NS(N)(=O)=O)cs1 [FAMOTIDINE]
Not Active: IC50 [1] | Ki [1] | IC50 (Cannabinoid receptor 1) | IC50 (Carbonic anhydrase 2) | IC50 [2] | Ki [2] | IC50 [3] | IC50 (Cathepsin G) | IC50 (Cytochrome P450 1A2) | Ki (Cytochrome P450 1A2) | IC50 (Cytochrome P450 2C9) | Ki (Cytochrome P450 2C9)

Cc1ccnc2c1NC(=O)c1cccnc1N2C1CC1 [NEVIRAPINE]
Not Active: IC50 [1] | Ki [1] | IC50 (Cannabinoid receptor 1) | IC50 (Carbonic anhydrase 2) | IC50 [2] | Ki [2] | IC50 [3] | IC50 (Cathepsin G) | IC50 (Cytochrome P450 1A2) | Ki (Cytochrome P450 1A2) | IC50 (Cytochrome P450 2C9) | Ki (Cytochrome P450 2C9)

Reference: ChEMBL document CHEMBL1909046, “DrugMatrix in vitro pharmacology data”
